From paper PMC11348189, “Disorder-to-order active site capping regulates the rate-limiting step of the inositol pathway” (Proceedings of the National Academy of Sciences of the …, 2024)

Columns and labels:
[1] = biological target: T1, endogenous fungal MIPS (myo-inositol-1-phosphate synthase) (Thermochaetoides thermophila, UniProt G0SDP4); assay: cryo-EM structure ([…] Å); type: binding; conditions: endogenously bound in all four active sites; native SEC fraction, pH 7.4; monovalent cation (probably K+) near NAD
T1 construct: gene CTHT_0052500; native full-length enzyme in SEC fraction of T. thermophila cell extract, no tag; 240 kDa homotetramer; residues 40-552 resolved
T1 sequence (G0SDP4 1-552): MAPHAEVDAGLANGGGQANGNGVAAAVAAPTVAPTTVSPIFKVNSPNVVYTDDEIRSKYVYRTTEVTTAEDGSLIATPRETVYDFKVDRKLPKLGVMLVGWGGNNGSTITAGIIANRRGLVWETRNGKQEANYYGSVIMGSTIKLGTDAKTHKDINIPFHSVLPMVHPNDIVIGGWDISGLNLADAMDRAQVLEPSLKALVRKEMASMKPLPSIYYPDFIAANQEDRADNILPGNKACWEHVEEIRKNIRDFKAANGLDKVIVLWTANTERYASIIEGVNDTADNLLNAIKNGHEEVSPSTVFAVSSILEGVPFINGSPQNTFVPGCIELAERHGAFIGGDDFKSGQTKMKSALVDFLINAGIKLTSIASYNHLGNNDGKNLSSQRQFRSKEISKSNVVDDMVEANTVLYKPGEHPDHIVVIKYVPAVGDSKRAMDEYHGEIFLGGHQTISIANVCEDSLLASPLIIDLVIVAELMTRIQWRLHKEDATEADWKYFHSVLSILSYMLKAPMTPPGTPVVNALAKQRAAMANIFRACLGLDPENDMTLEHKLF

[2] = biological target: T1, endogenous fungal MIPS (myo-inositol-1-phosphate synthase); assay: phosphate release after periodate oxidation, molybdate, […] nm; type: biochemical; conditions: SEC fraction of cell extract; 5 mM G6P, 0.8 mM NAD+, 14 mM ammonium acetate, 2 mM DTT, 100 mM Tris-acetate pH 8, 37 °C

SMILES	cryo-EM structure (2.48 Å) [1]	phosphate release after periodate oxidation, molybdate, 820 nm [2]
NC(=O)c1ccc[n+]([C@@H]2O[C@H](COP(=O)(O)OP(=O)(O)OC[C@H]3O[C@@H](n4cnc5c(N)ncnc54)[C@H](O)[C@@H]3O)[C@@H](O)[C@H]2O)c1 [NAD^+]	allowing for the unambiguous placement of the cofactor NAD (Fig. 2A)	
O=P(O)(O)OC[C@H]1OC(O)[C@H](O)[C@@H](O)[C@@H]1O (some centres unmarked) [glucose-6-phosphate]		probe the identified fractions for their capacity to convert G6P to IMP
